Reference: the supplement of paper PMC10307832

How the values were obtained:
Test in all cases: relative viability (nuclei count vs DMSO), 5 days (fraction); higher = more cells survive
[1] = compound: C[C@H]([C@@H](C(=O)N)NC(=O)[C@@H]1CSSC[C@@H](C(=O)N[C@H](C(=O)N[C@@H](C(=O)N[C@H](C(=O)N1)CCCCN)CC2=CNC3=CC=CC=C32)CC4=CC=C(C=C4)O)NC(=O)[C@@H](CC5=CC=CC=C5)N)O [CAP-232] + Nc1nc2[nH]cc(CCc3ccc(C(=O)N[C@@H](CCC(=O)O)C(=O)O)cc3)c2c(=O)[nH]1 [Pemetrexed] (partner 0.2 µM)
Procedure, shortened: (§1)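 Relative viability is defined as nuclei in treated wells over nuclei in vehicle wells. Duplicate plates were run and medians reported. Lung cancer cell lines in 1536-well plates were dosed by pin tool one day after seeding, with one drug or with a fixed anchor-drug dose plus five library-drug doses (not always all listed) in √10 steps, and nuclei were counted after 5 days.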

[2] = compound: C[C@H]([C@@H](C(=O)N)NC(=O)[C@@H]1CSSC[C@@H](C(=O)N[C@H](C(=O)N[C@@H](C(=O)N[C@H](C(=O)N1)CCCCN)CC2=CNC3=CC=CC=C32)CC4=CC=C(C=C4)O)NC(=O)[C@@H](CC5=CC=CC=C5)N)O [CAP-232] + CS(=O)(=O)CCNCc1ccc(-c2ccc3ncnc(Nc4ccc(OCc5cccc(F)c5)c(Cl)c4)c3c2)o1 [Lapatinib] (partner 2 µM)
Procedure, shortened: as §1

[3] = compound: C[C@H]([C@@H](C(=O)N)NC(=O)[C@@H]1CSSC[C@@H](C(=O)N[C@H](C(=O)N[C@@H](C(=O)N[C@H](C(=O)N1)CCCCN)CC2=CNC3=CC=CC=C32)CC4=CC=C(C=C4)O)NC(=O)[C@@H](CC5=CC=CC=C5)N)O [CAP-232] + CC(=O)c1c(C)c2cnc(Nc3ccc(N4CCNCC4)cn3)nc2n(C2CCCC2)c1=O [Palbociclib] (partner 0.5 µM)
Procedure, shortened: as §1

[4] = compound: C[C@H]([C@@H](C(=O)N)NC(=O)[C@@H]1CSSC[C@@H](C(=O)N[C@H](C(=O)N[C@@H](C(=O)N[C@H](C(=O)N1)CCCCN)CC2=CNC3=CC=CC=C32)CC4=CC=C(C=C4)O)NC(=O)[C@@H](CC5=CC=CC=C5)N)O [CAP-232] + O=C(c1cc(Cc2n[nH]c(=O)c3ccccc23)ccc1F)N1CCN(C(=O)C2CC2)CC1 [Olaparib] (partner 8 µM)
Procedure, shortened: as §1

[5] = compound: C[C@H]([C@@H](C(=O)N)NC(=O)[C@@H]1CSSC[C@@H](C(=O)N[C@H](C(=O)N[C@@H](C(=O)N[C@H](C(=O)N1)CCCCN)CC2=CNC3=CC=CC=C32)CC4=CC=C(C=C4)O)NC(=O)[C@@H](CC5=CC=CC=C5)N)O [CAP-232] + N=C(N)NC(=N)NCCc1ccccc1 [Phenformin] (partner 250 µM)
Procedure, shortened: as §1

Cell Line	relative viability ([1]; first compound 0.4 µM)	relative viability ([1]; first compound 1.265 µM)	relative viability ([1]; first compound 4 µM)	relative viability ([1]; first compound 12.65 µM)	relative viability ([2]; first compound 0.4 µM)	relative viability ([2]; first compound 1.265 µM)	relative viability ([2]; first compound 4 µM)	relative viability ([2]; first compound 12.65 µM)	relative viability ([3]; first compound 0.4 µM)	relative viability ([3]; first compound 1.265 µM)	relative viability ([3]; first compound 4 µM)	relative viability ([3]; first compound 12.65 µM)	relative viability ([4]; first compound 0.4 µM)	relative viability ([4]; first compound 1.265 µM)	relative viability ([4]; first compound 4 µM)	relative viability ([4]; first compound 12.65 µM)	relative viability ([5]; first compound 0.4 µM)	relative viability ([5]; first compound 1.265 µM)	relative viability ([5]; first compound 4 µM)	relative viability ([5]; first compound 12.65 µM)
LK-2	0.325	0.284	0.326	0.294	0.942	1.06	0.808	0.759	0.595	0.802	0.576	0.783	0.762	0.834	0.702	0.811	0.47	0.302	0.389	0.415
LOU-NH91	0.473	0.378	0.392	0.275	0.781	0.771	0.821	0.639	0.525	0.482	0.522	0.39	0.945	0.873	0.907	0.574	0.725	0.752	0.769	0.487
LU99A	0.181	0.139	0.182	0.177	0.964	1.03	1.13	1.05	0.392	0.375	0.407	0.505	0.233	0.232	0.332	0.306	0.866	0.751	0.839	0.8
LXF-289	1.05	0.839	0.904	0.958	0.952	0.903	0.914	0.953	0.611	0.625	0.58	0.62	1.09	1.07	1.12	1.08	0.508	0.519	0.512	0.554
NCI-H23	0.686	0.492	0.746	0.623	0.949	1.03	1.07	0.828	0.437	0.478	0.523	0.567	0.34	0.301	0.306	0.27	0.84	0.813	0.833	0.678
NCI-H322M	0.621	0.645	0.599	0.788	0.558	0.492	0.69	0.589	0.494	0.427	0.446	0.508	0.939	0.746	0.745	0.697	0.873	0.709	0.759	0.862
NCI-H358	0.151	0.171	0.187	0.187	0.395	0.393	0.436	0.445	0.22	0.125	0.14	0.153	0.454	0.677	0.783	0.465	0.319	0.295	0.278	0.315
NCI-H460	0.0632	0.0566	0.0556	0.0558	1.11	1.02	1.62	0.773	0.246	0.148	0.155	0.0823	0.515	0.384	0.526	0.332	0.634	0.529	0.567	0.307
NCI-H520	0.581	0.651	0.673	0.634	0.961	0.858	0.965	0.684	0.241	0.224	0.249	0.234	0.349	0.304	0.321	0.303	0.529	0.52	0.619	0.461
NCI-H647	0.153	0.184	0.182	0.158	1.07	1.14	1.39	0.469	0.34	0.358	0.404	0.284	0.699	0.7	0.635	0.373	0.434	0.561	0.637	0.401
NCI-H650	0.869	0.786	0.799	0.932	1.17	0.879	0.966	0.958	0.358	0.306	0.271	0.285	0.434	0.427	0.341	0.361	0.443	0.416	0.472	0.413
NCI-H661	0.885	0.872	0.98	0.827	0.496	0.592	0.465	0.344	0.415	0.403	0.433	0.35	0.768	0.771	0.8	0.683	0.262	0.268	0.278	0.227
NCI-H838	0.254	0.26	0.245	0.261	0.976	0.974	1.14	0.499	0.228	0.205	0.237	0.212	0.883	0.808	0.836	0.705	0.609	0.53	0.593	0.537
NCI-H1355	1.03	0.946	1.19	1	1.11	1.06	1.19	1.01	0.42	0.413	0.432	0.343	0.737	0.747	0.769	0.703	0.517	0.467	0.43	0.418
NCI-H1395	0.971		0.917	0.503	1.01	0.933	1.09	0.911	0.679		0.665	0.578	0.436		0.462	0.264	0.46	0.4	0.448	0.453
NCI-H1437	0.299	0.288	0.33	0.321	0.806	0.853	0.795	0.583	0.293	0.312	0.315	0.303	0.64	0.629	0.665	0.607	0.297	0.307	0.327	0.254
NCI-H1650	0.436	0.385	0.451	0.336	0.737	0.788	0.966	0.214	0.306	0.304	0.38	0.243	1.04	0.799	0.836	0.493	0.479	0.335	0.424	0.153
NCI-H1651	0.686	0.514	0.676	0.709	0.944	0.834	0.913	0.484	0.561	0.525	0.511	0.522	0.196	0.184	0.2	0.214	0.407	0.32	0.352	0.25
NCI-H1666	0.911	0.887	0.984	0.874	0.687		0.65	0.378	0.715	0.636	0.655	0.67	0.819	0.75	0.816	0.664	0.611	0.575	0.573	0.593
NCI-H1734	0.44	0.402	0.402	0.307	1	1	0.95	0.73	0.34	0.336	0.368	0.233	0.596	0.609	0.605	0.512	0.369	0.321	0.387	0.264
NCI-H1755	0.398	0.375	0.514	0.393	1.13	0.984	1.23	1.02	0.474	0.406	0.48	0.413	0.911	0.881	0.935	0.824	0.676	0.626	0.622	0.582
NCI-H1792	1.12	0.78	0.849	0.465	1.48	0.917	0.95	0.856	0.893	0.694	0.669	0.545	0.51	0.642	0.623	0.235	0.129	0.193	0.247	0.188
NCI-H1793	1.01	0.61	0.905	0.696	0.563	0.625	0.75	0.745	0.401	0.313	0.303	0.324	0.921	0.922	1.04	0.877	0.4	0.367	0.329	0.372
NCI-H1915	0.563	0.41	0.55	0.464	1.04	0.957	1.04	0.982	0.5	0.538	0.524	0.511	0.243	0.248	0.249	0.267	0.419	0.356	0.407	0.397
NCI-H1944	0.569	0.517	0.601	0.573	0.942	0.729	0.998	0.773	0.393	0.31	0.326	0.325	0.385	0.368	0.411	0.357	0.211	0.207	0.221	0.181
NCI-H1975	0.32	0.289	0.307	0.197	1.03	0.867	1.11	0.583	0.664	0.486	0.74	0.324	0.825	0.894	1.04	0.363	0.449	0.413	0.437	0.332
NCI-H1993	0.602	0.533	0.553	0.586	0.877	0.791	0.915	0.673	0.701	0.586	0.62	0.602	1.32	1.14	0.933	1.08	0.497	0.541	0.545	0.564
NCI-H2009	1.07	1.06	1.11	1	1.02	0.896	0.913	0.848	0.181	0.244	0.175	0.153	0.799	0.684	0.74	0.52	0.501	0.493	0.547	0.42
